From patent US7405051B2, “Method of screening antiplatelet agents” (Astellas Pharma Inc., priority 2000, dated 2008)

Experiments:
[1] = target: HORK3 protein (human ADP receptor P2TAC) (Homo sapiens, UniProt Q9H244); assay: [3H]-2MeSADP binding assay on membrane fraction of C6-15 cell expressing HORK3 protein; settings: Scatchard analysis
Source text: (§1) The C6-15 cells expressing the HORK3 protein prepared in Example 5 were taken and washed, and then suspended in 20 mmol/L Tris-HCl (pH7.4) containing 5 mmol/L EDTA and a protease inhibitor cocktail set (Complete™; manufactured by Boeringer Mannheim). The whole was homogenized by using a POLYTRON, and ultracentrifuged. The pellet was suspended in 50 mmol/L Tris-HCl (pH7.4) containing 1 mmol/L EDTA, 100 mmol/L NaCl, 0.1% BSA, and Complete™ to obtain a membrane fraction.
(§2) After [^3H]-2MeSADP (manufactured by Moravek Biochemical) was added to 20 μg of the membrane fraction as a final concentration of 0.25 to 50 nmol/L, and was incubated in 250 μL of 50 mmol/L Tris-HCl (pH7.4) containing 1 mmol/L EDTA, 100 mmol/L NaCl, 0.1% BSA, and Complete™ at room temperature for 1 hour, the whole was collected on a glass filter by using a cell harvester. A microscintillator was added to the glass filter, and then a total amount of binding to the membrane fraction was measured by using a liquid scintillation counter. Further, an amount of non-specific binding to the membrane fraction was measured by adding 2MeSADP (a final concentration=50 μmol/L) in the above assay.
A microscintillator was added to the glass filter, and then radioactivity was measured by using a liquid scintillation counter. Further, radioactivity was measured by not adding the compound and by adding 2MeSADP (a final concentration=10 μmol/L) in the above assay, as a total amount of binding and an amount of non-specific binding, respectively.

[2] = tested on: membrane fraction of the host cell C6-15 not expressing the HORK3 protein; assay: [3H]-2MeSADP binding to membrane fraction of host cell C6-15 not expressing HORK3 protein; set-up: species or system rat
Source text: as §1
as §2, with “assay. […] In contrast, such a specific binding was not observed in the membrane fraction of the host cell C6-15 not expressing the HORK3 protein.” for “assay.”

Sequence of HORK3 protein (human ADP receptor P2TAC) (Q9H244 whole entry): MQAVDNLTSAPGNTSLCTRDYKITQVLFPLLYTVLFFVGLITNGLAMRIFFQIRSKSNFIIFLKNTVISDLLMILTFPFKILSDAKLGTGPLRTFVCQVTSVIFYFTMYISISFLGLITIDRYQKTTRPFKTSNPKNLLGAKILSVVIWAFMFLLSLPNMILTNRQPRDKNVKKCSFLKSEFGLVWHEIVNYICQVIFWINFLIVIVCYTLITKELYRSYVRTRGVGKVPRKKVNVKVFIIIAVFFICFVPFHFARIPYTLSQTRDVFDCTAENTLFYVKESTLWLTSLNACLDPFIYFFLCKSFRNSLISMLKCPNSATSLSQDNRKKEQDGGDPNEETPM

## CSc1nc(N)c2ncn([C@@H]3O[C@H](COP(=O)(O)OP(=O)(O)O)[C@@H](O)[C@H]3O)c2n1 [[^3H]-2MeSADP, [^3H] 2-methylthio-ADP]
[1]; 0.25 to 50 nmol/L, room temperature 1 hour, read-out: dissociation constant Kd of binding to the membrane fraction
  Kd: 0.27 nM
[1]; membrane fraction of C6-15 cell expressing HORK3
  maximum binding Bmax: 3.7 pmol/mg
[2]
  specific binding to the membrane fraction: not observed
